Data as given in patent US9199981B2 (NOVARTIS AG, priority 2011, dated 2015).

Molecular target: c-kit (Homo sapiens (Human), UniProt P10721)
Assay: Mo7e cell proliferation assay (SCF dependent proliferation)
Format: cell-based
Settings: Mo7e cells stimulated with human recombinant SCF, 48 hours, 1% FBS
Experimental: Compounds of Formula (I) and Formula (II) provided herein were assayed to measure their capacity to inhibit c-kit and PDGFR kinases using the appropriate assay described below: c-Kit inhibition was evaluated using the Mo7e cell proliferation assay, and PDGFR inhibition was evaluated using the Rat A10 cell proliferation assay and the Human TG/HA-VSMC cell proliferation assay.
Mo7e Cell Proliferation Assay
The compounds of Table 1 and Table 2 were tested for inhibition of SCF dependent proliferation using human Mo7e cells which endogenously express c-kit in a 384 well format. […] After 48 hours of incubation at 37° C., cell viability was measured by adding 25 uL of CellTiter Glo (Promega) to the cells and the luminescence was measured by a CLIPR CCD camera (Molecular Devices).
The IC50 value is given as that concentration of the test compound in question that provoke a response halfway between the baseline and maximum responses.

Chain of c-kit (P10721 26-976): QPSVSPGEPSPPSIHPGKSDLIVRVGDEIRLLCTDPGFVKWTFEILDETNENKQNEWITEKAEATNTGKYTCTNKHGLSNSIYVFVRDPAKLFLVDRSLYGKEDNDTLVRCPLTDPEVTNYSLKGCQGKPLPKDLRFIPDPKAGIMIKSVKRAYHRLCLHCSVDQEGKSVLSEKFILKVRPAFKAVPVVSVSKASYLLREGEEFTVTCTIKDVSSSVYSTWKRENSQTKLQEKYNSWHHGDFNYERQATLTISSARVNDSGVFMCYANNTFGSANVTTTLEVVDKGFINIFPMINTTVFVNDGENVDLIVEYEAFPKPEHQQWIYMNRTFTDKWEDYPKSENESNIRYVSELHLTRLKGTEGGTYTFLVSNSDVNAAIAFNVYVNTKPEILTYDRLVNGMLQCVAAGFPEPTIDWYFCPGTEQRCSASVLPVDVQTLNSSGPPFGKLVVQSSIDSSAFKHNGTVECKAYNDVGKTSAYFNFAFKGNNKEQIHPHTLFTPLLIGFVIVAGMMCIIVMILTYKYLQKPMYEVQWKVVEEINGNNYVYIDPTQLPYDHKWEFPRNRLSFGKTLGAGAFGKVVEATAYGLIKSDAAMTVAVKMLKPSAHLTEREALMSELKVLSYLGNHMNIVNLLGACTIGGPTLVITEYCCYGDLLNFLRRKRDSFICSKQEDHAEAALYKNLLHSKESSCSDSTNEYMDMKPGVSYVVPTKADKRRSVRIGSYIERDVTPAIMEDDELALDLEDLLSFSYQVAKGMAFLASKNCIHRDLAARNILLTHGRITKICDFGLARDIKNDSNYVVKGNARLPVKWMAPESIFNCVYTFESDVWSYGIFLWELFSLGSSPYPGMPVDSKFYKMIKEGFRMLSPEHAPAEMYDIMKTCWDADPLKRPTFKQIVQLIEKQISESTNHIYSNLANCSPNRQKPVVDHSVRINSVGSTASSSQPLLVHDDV

| Structure (SMILES) | IC50 |
| --- | --- |
| Cc1ccc(-c2noc(C3CC(F)(F)C3)n2)cc1NC(=O)c1cnc2ccc(CN3CCOC3=O)cn12 [F154] | 365 nM |
| Cc1ccc(-c2noc([C@H]3C[C@H](NS(C)(=O)=O)C3)n2)cc1NC(=O)c1cnc2ccccn12 [F129] | 143 nM |
| Cc1ccc(-c2noc(C3CC(F)(F)C3)n2)cc1NC(=O)c1cnc2cc(OC(F)F)ccn12 [F149] | 378 nM |
| Cc1ccc(-c2noc(C3CC(F)(F)C3)n2)cc1NC(=O)c1cnc2cc(C3CCNCC3)ccn12 [F169] | 539 nM |
| Cc1ccc(-c2noc([C@H]3C[C@@H](N4CCN(C)CC4)C3)n2)cc1NC(=O)c1cnc2ccccn12 [F125] | 393 nM |
| COCCOCc1ccc2ncc(C(=O)Nc3cc(-c4noc(C5CC(F)(F)C5)n4)ccc3C)n2c1 [F164] | 101 nM |
| Cc1ccc(-c2noc(C3CC(F)(F)C3)n2)cc1NC(=O)c1cnc2ccc(CN3CCN(C)CC3)cn12 [F144] | 249 nM |
| Cc1ccc(-c2noc(C3CC(F)(F)C3)n2)cc1NC(=O)c1cnc2ccc(CC(C)(C)O)cn12 [F153] | 165 nM |
| Cc1ccc(-c2noc(C3CC(F)(F)C3)n2)cc1NC(=O)c1cnc2ccc(CN3CCN(CCO)CC3)cn12 [F145] | 238 nM |
| Cc1ccc(-c2noc(C3CC4(CCCO4)C3)n2)cc1NC(=O)c1cnc2ccccn12 (stereo not drawn) [F33] | 88 nM |
| Cc1ccc(-c2noc([C@H]3C[C@@](C)(O)C3)n2)cc1NC(=O)c1cnc2ccc(F)cn12 [F158] | 175 nM |
| Cc1ccc(-c2noc([C@H]3C[C@@H](N4CCOCC4)C3)n2)cc1NC(=O)c1cnc2ccccn12 [F124] | 257 nM |
| Cc1ccc(-c2noc(C3CC(F)(F)C3)n2)cc1NC(=O)c1cnc2ccc(-c3nnn[nH]3)cn12 [F173] | > 10000 nM |

Now those with a lower IC50, led by results:

| IC50 | Structure (SMILES) |
| --- | --- |
| 33 nM | Cn1cc(-c2ccc3ncc(C(=O)Nc4cc(-c5noc(C6CC(F)(F)C6)n5)ccc4F)n3c2)cn1 [F47] |
| 52 nM | Cc1ccc(-c2noc(C3CC4(C3)OCCCO4)n2)cc1NC(=O)c1cnc2ccccn12 [F10] |
| 7 nM | Cc1ccc(-c2noc(C3CC(F)(F)C3)n2)cc1NC(=O)c1cnc2ccc(-c3cnn(C)c3)cn12 [F42] |
| 40 nM | Cc1ccc(-c2noc(CC3CC3)n2)cc1NC(=O)c1cnc2ccccn12 [F105] |
| 82 nM | Cc1ccc(-c2noc(C3CC(F)(F)C3)n2)cc1NC(=O)c1cnc2ccc(CCN3CCN(C)CC3)cn12 [F63, N-(5-(5-(3,3-difluorocyclobutyl)-1,2,4-oxadiazol-3-yl)-2-methylphenyl)-6-(2-(4-methylpiperazin-1-yl)ethyl)imidazo[1,2-a]pyridine-3-carboxamide] |
| 9 nM | Cc1ccn2c(C(=O)Nc3cc(-c4noc(COC5CC(F)(F)C5(F)F)n4)ccc3C)cnc2c1 (stereo not drawn) [F102] |
| 45 nM | CC(=O)CCc1ccc2ncc(C(=O)Nc3cc(-c4noc(C5CC(F)(F)C5)n4)ccc3C)n2c1 [F53, N-(5-(5-(3,3-difluorocyclobutyl)-1,2,4-oxadiazol-3-yl)-2-methylphenyl)-6-(3-oxobutyl)imidazo[1,2-a]pyridine-3-carboxamide] |
| 49 nM | Cc1cc(C)c(-c2noc(C3CC(F)(F)C3)n2)cc1NC(=O)c1cnc2ccccn12 [F67] |
| 6 nM | Cc1ccc(-c2noc(C3CC(F)(F)C3)n2)cc1NC(=O)c1cnc2ccc(-c3cnn(CC(C)(C)O)c3)cn12 [F44] |
| 11 nM | Cc1ccc(-c2noc(C3CC(F)(F)C3)n2)cc1NC(=O)c1cnc2ccc(-c3cnn(CCO)c3)cn12 [F41] |
| 20 nM | Cc1ccc(-c2noc([C@H]3C[C@@H]3F)n2)cc1NC(=O)c1cnc2ccccn12 [F91] |
| 3 nM | Cc1ccc(-c2noc(COC3CC(F)(F)C3(F)F)n2)cc1NC(=O)c1cnc2ccccn12 (stereo not drawn) [F35] |
| 58 nM | Cc1ccc(-c2noc([C@H]3C[C@@H]3F)n2)cc1NC(=O)c1cnc2ccccn12 [F110, N-(5-(5-((1R,2S)-2-fluorocyclopropyl)-1,2,4-oxadiazol-3-yl)-2-methylphenyl)imidazo[1,2-a]pyridine-3-carboxamide] |
| 26 nM | Cc1ccc(-c2noc(C3CC(F)(F)C3)n2)cc1NC(=O)c1cnc2ccc(-c3cnn(CCN4CCOCC4)c3)cn12 [F50] |
| 25 nM | Cc1ccc(-c2noc(C3CC(=CCCO)C3)n2)cc1NC(=O)c1cnc2ccccn12 (stereo not drawn) [F32, N-(5-(5-(3-(3-hydroxypropylidene)cyclobutyl)-1,2,4-oxadiazol-3-yl)-2-methylphenyl)imidazo[1,2-a]pyridine-3-carboxamide] |
| 78 nM | Cc1ccc(-c2noc(C3CC(F)(F)C3)n2)cc1NC(=O)c1cnc2ccc(-n3ccnc3)cn12 [F82] |
| 67 nM | Cc1ccc(-c2noc(C3CC(F)(F)C3)n2)cc1NC(=O)c1cnc2ccc(COCCF)cn12 [F176, N-(5-(5-(3,3-difluorocyclobutyl)-1,2,4-oxadiazol-3-yl)-2-methylphenyl)-6-((2-fluoroethoxy)methyl)imidazo[1,2-a]pyridine-3-carboxamide] |
